Where “and” joins values, the source holds several entries; their conditions need not be identical. Identical values can stand only once. Like-named read-outs stand apart in the source and are kept apart here.
What was measured:
Type in all cases: cell-based
[1] = system: QS-controlled luxCDABE operon; settings: for RLU: Strain AH371
CqsS = settings: for CqsS Dimers / Relative dimers, Final experimental replicates / Relative dimers (CqsS, normalized to WT Ave): LuxS-CqsA-, AI-2 1 μM, CAI-1 5 μM; for CqsS Dimers / Relative dimers (CqsS, normalized to WT Ave): single replicates
hapA = system: hapA
qrr4 = system: qrr4
[2] = system: QS-controlled luxCDABE operon; settings: for RLU: PluxPQ-CqsS::3XFLAG LuxS-CqsA-

Compound C[C@]12OC[C@H](O)[C@@]1(O)O[B-](O)(O)O2 [AI-2, (2S, 4S)-2-methyl-2,3,3,4-tetrahydroxytetrahydrofuran borate] has a Light production ([1]; LuxS-CqsA- +AI-2 1 μM, OD600 0.0275) of 5854546 RLU, a Light production ([1]; LuxS-CqsA- +AI-2 1 μM, OD600 0.0589) of 5025467 RLU and a Light production ([1]; LuxS-CqsA- +AI-2 1 μM, OD600 0.2147) of 1280857 RLU. For the same compound, the Light production ([1]; LuxS-CqsA- +AI-2 1 μM, OD600 0.4541) was 1704470 RLU, the Light production ([1]; LuxS-CqsA- +AI-2 1 μM, OD600 1.201) was 1856786 RLU and the Light production ([1]; LuxS-CqsA- +AI-2 1 μM, OD600 1.481) was 34976370 RLU. The Light production ([1]; LuxS-CqsA- +AI-2 1 μM, OD600 1.867) was 25388320 RLU, the Light production ([1]; LuxS-CqsA- +AI-2 1 μM, OD600 3.776) was 12473520 RLU and the Light production ([1]; LuxS-CqsA-, AI-2 1 μM, CAI-1 5 μM, OD600 0.005) was 108432 RLU. For the same compound, the RLU ([1]; agonist 0.0476837 nM) was 2.35E+03 RLU and 4.30E+03 RLU and 4.28E+03 RLU, the RLU ([1]; agonist 0.762939 nM) was 2.47E+03 RLU and 4.79E+03 RLU and 4.30E+03 RLU and the RLU ([1]; agonist 3.05176 nM) was 2.44E+03 RLU and 2.42E+03 RLU and 2.17E+03 RLU. For the same compound, the RLU ([1]; agonist 12.207 nM) was 2.38E+03 RLU and 4.73E+03 RLU and 4.30E+03 RLU, the RLU ([1]; agonist 48.8281 nM) was 9.41E+03 RLU and 7.14E+03 RLU and 8.89E+03 RLU and the RLU ([1]; agonist 195.312 nM) was 2.21E+04 RLU and 3.23E+04 RLU and 2.62E+04 RLU. For the same compound, the RLU ([1]; agonist 781.25 nM) was 6.41E+04 RLU and 4.85E+04 RLU and 5.29E+04 RLU, the RLU ([1]; agonist 3125 nM) was 6.25E+04 RLU and 6.51E+04 RLU and 5.68E+04 RLU and the RLU ([1]; agonist 12500 nM) was 7.03E+04 RLU and 7.29E+04 RLU and 6.20E+04 RLU. The “increase in light production” value ([1]; saturating autoinducer, HCD, vs untreated ΔcqsA ΔluxS) was 100 fold, the “Relative dimers, Average of 111816 reps” value (CqsS; HCD) was 0.8076 and 0.9392 and the “CqsS Dimers” value (CqsS; HCD (OD600 = 2.0)) was 120.316 and 41.5193 and 39.7812 and 190.837 and 226.59 and 73.4627 and 88.226 and 103.067. For the same compound, the “Relative dimers, Final experimental replicates” value (CqsS; HCD) was 0.8076 and 0.9392 and 0.977 and 1.14 and 0.4129 and 0.3956, the “Relative dimers (CqsS, normalized to WT Ave)” value (CqsS; HCD) was 0.7384 and 0.8768 and 0.8534 and 1.025 and 0.977 and 1.14 and 0.4129 and 0.3956 and the “Relative dimers, Average of 111816 reps” value (CqsS; LCD) was 1.105 and 0.8147. The “CqsS Dimers” value (CqsS; LCD (OD600 = 0.2)) was 53.516 and 13.7214 and 12.1436 and 82.1482 and 72.8907 and 15.3978 and 28.2649 and 41.282, the “Relative dimers, Final experimental replicates” value (CqsS; LCD) was 1.105 and 0.8147 and 1.157 and 1.5 and 0.8624 and 0.7633 and the “Relative dimers (CqsS, normalized to WT Ave)” value (CqsS; LCD) was 1.171 and 1.039 and 0.5746 and 1.055 and 1.157 and 1.5 and 0.8624 and 0.7633. The CqsS protein levels (CqsS; ΔcqsA ΔluxS mutant, LCD and HCD) was “increased CqsS protein levels to nearly that present in the WT”, the “increase in hapA expression” value (hapA; LuxQ+ AI-2- strain (ΔcqsS ΔcqsR ΔvpsS ΔluxS)) was 27 fold and the “increase in hapA expression” value (hapA; ΔcqsA ΔluxS strain, HCD) was 4 fold. For the same compound, the “RLU relative to Average WT” value (qrr4; LuxS-CqsA- strain + autoinducer, Average WT 115335416.84) was 29.34 and 29.68 and 31.98, the “RLU, average per biological replicate (Totals)” value (qrr4; LuxS-CqsA- strain + autoinducer, Rep 1-3) was 3.38E+09 RLU and 3.42E+09 RLU and 3.69E+09 RLU and the “reduction of qrr4-luxCDABE expression” value (qrr4; saturating autoinducer, ΔcqsA ΔluxS mutant) was 2 fold. For the same compound, the RLU ([2]; OD600 0.0532) was 1.35E+07 RLU, the RLU ([2]; OD600 0.2928) was 9.01E+07 RLU and the RLU ([2]; OD600 0.826) was 1.12E+09 RLU. It also gave an RLU ([2]; OD600 1.094) of 3.16E+09 RLU, an RLU ([2]; OD600 1.626) of 2.09E+10 RLU and an RLU ([2]; OD600 2.281) of 2.23E+10 RLU. The “QS response when cqsS is under the luxPQ promoter” value ([2]; S9B Fig) was “caused premature induction of QS”.

From article PMC5467912, “Asymmetric regulation of quorum-sensing receptors drives autoinducer-specific gene expression programs in Vibrio cholerae” (PLoS Genetics, 2017)
